Assay results from patent publication US11408885B2, “Compositions and multiplex assays for characterizing active proteases and their inhibitors” (Massachusetts Institute of Technology, priority 2017, dated 2022).

Columns and labels:
[1] = tested on: proteases in peritoneal fluid of control donors and endometriosis patients; test: FRET substrate cleavage in clarified peritoneal fluid; assay type: biochemical, human; settings: peritoneal fluids of six control donors and six endometriosis patients; 500 nM or 1500 nM HxBP-Bt
Description: Clarified peritoneal fluid from patients with endometriosis was compared to that from a control population with regards to the active MMP compositions and quantities. Peritoneal fluid is a mixture of cell debris, leukocytes, and thousands of soluble proteins including over 100 proteases and protease inhibitors that is contained within the pelvic cavity and interacts with endometriotic lesions (Amon, et al, PLoS ONE, 5(6) (2010)).
All laparoscopy patients provided informed consent in accordance with a protocol approved by the Partners Human Research Committee and the Massachusetts Institute of Technology Committee on the Use of Humans as Experimental Subjects. Enrollment was limited to pre-menopausal women with regular cycles (26-32 days) and excluded individuals who had received hormonal treatment within three months of surgery. Moderate/Severe (Stage III/IV) endometriosis was diagnosed according to the revised criteria of the American Society for Reproductive Medicine 8. Peritoneal fluid was aspirated from the rectouterine pouch immediately following trocar insertion and prior to peritoneal lavage or surgical manipulation. Upon collection, specimens were immediately placed on wet ice and clarified within 15 min. by centrifugation for 10 min. at 1000 rcf. Clarified aspirates were transported to the laboratory on ice, aliquoted, and stored at −80° C. until analysis.

MMP12 = MMP12 (Homo sapiens, UniProt P39900); test: FRET substrate cleavage by recombinant MMP, inhibition by activity-based probe; assay type: biochemical; design: The recombinant catalytic domains of human MMPs 7 and 9 were purchased from Enzo Life Sciences, and of MMP 12 from Anaspec; purchased Anaspec; settings: FRET substrate PEPDAB008 10 μM, read-out: IC50, inhibition of substrate cleavage of active MMP
Description: The binding of an activity-based probe, e.g., HxBP-Bt, to the active site of an MMP (as shown in FIG. 1A) would effectively reduce (or inhibit) the ability of such MMP to cleave its substrate. […] This correlation should also provide an IC50 value to measure the sensitivity/potency of the MAMBI system to bind, and thereby quantify, active MMPs. […] Fluorescence resonance energy transfer (FRET) technique is used to determine if a substrate is cleaved by pre-labeling two parts of a substrate molecule with a donor chromophore and an acceptor chromophore, respectively, and measuring the energy transfer efficiency from the donor to the acceptor chromophore to determine if two fluorophores are within a certain distance of each other, i.e. the substrate is intact and uncleaved. […] The fluorescence was monitored by plate reader. In general, readings measured fluorescence every 20 minutes for roughly five hours and the reported rate of increase in fluorescence was calculated from fitting a linear portion of this increase including at least 4 data points and subtracting the average increase in background, protease-free conditions. […] Reaction velocities were calculated from linear reaction periods from raw fluorescence value time courses. […] Relative rates of FRET substrate cleavage among samples with the addition of HxBP-Bt were quantified and compared with the rates without HxBP-Bt. […]

[2] = tested on: aggregate metalloprotease activity of conditioned medium; test: FRET substrate cleavage in conditioned media of cell cultures; assay type: biochemical, human
Method: Eight conditioned mediums were assayed, each tested in two complete biological replicates (n=2), from these cell cultures: four endometrial related cell populations including (1) primary endometrial stromal cells (pESC), (2) telomerase-immortalized human endometrial stromal cells (tHESC) (Krikun et al., Endocrinology, 145(5):2291-6 (2004)), (3) an adenocarcinoma endometrial epithelial cell line, Ishikawa, and (4) an epithelial line derived from an endometriosis lesion, 12z; three canonical cancer cell lines including (5) A549, (6) […], and (7) HT1080; as well as (8) human telomerase reverse transcriptase (hTERT) immortalized mesenchymal stem cell line (MSC).
Conditioned supernatant was prepared: collected at 12 h, spun down at 200 g for 5 min to remove debris, and immediately flash-frozen. For FRET-substrate assays involving this supernatant, final reactions were composed of a 2:1:1 mixture of […] substrate diluted from 5 mMDMSO stock into phosphate buffered saline, 4 nM active MMP7 diluted in ‘MMP buffer’, and thawed supernatant.
Validation of HxBP-Bt probe binding to the active sites of proteases in conditioned media was performed based on the FRET-based study as described in Example 1, without the addition of MMP capture beads. […]

Sequence of MMP12 (P39900 106-263 limits assumed): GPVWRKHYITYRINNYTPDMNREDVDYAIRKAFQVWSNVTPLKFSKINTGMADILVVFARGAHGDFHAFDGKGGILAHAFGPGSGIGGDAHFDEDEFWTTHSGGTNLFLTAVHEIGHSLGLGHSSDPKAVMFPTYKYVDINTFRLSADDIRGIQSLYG

- IC50 (MMP12): 4 nM
Structure (SMILES): CC(C)CC(C(=O)NC(Cc1ccc(C(=O)c2ccccc2)cc1)C(=O)NCCOCCOCCOCC(=O)NCC(C)(C)SSC(C)(C)CNC(=O)CCCCC1SCC2NC(=O)NC21)C(O)C(=O)NO (stereo not shown) [HxBP-Bt, biotin-tagged hydroxamate benzophenone (HxBP-Bt) probe]
- effect on substrate cleavage [1]: inhibited substrate cleavage in all samples
- effect on substrate cleavage (bulk protease activity) ([2]; eight conditioned media normalized to 1000 μg/mL, 500 nM HxBP-Bt): greatly deceased the substrate cleavage ability
- effect on substrate cleavage (bulk protease activity) ([2]; eight conditioned media, 1500 nM HxBP-Bt, in some cases): further decreased the protease activities
